Patent publication US20160251403A1, “PEPTIDE COMBINATIONS AND USES THEREOF IN TREATING DUST MITE ALLERGY” (ALK-ABELLO A/S, priority 2013, published 2016)
Positions count from the first letter of the chain named. No end group written: not given here.

Assays:
DRB1_1501 = DRB1_1501 (Homo sapiens, UniProt P01903+P01911); assay: Competitive MHC class II binding assay, DRB1_1501
DRB1_1302 = DRB1_1302 (Homo sapiens, UniProt P01903+P01911, A100E/A169T/K41T/L162R/M171V/P40S/Q125H/Q178H/Q39Y/Q99D/R42S/S66N/T262R/V115G/W38E/Y61H); assay: Competitive MHC class II binding assay, DRB1_1302;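 also: purified HLA class II protein incubated two to four days with a radiolabeled reference binder and test peptide at six concentrations over a 100,000-fold range, complex-bound radioactivity counted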
DRB4_0101 = DRB4_0101 (Homo sapiens, UniProt P01903+P13762, G164S); assay: Competitive MHC class II binding assay, DRB4_0101
DRB1_0405 = DRB1_0405 (Homo sapiens, UniProt P01903+P01911, A100R/A169T/D86S/F76Y/I96L/K127E/L162R/M171V/N62H/P40V/Q125Y/R42H/S133A/S149N/S66Y/V115G/V209L/W38E); assay: Competitive MHC class II binding assay, DRB1_0405
DRB3_0202 = DRB3_0202 (Homo sapiens, UniProt P01903+P79483, A212P/D57E/F66Y/L67A/R103Q/R218S/R40L/S89Y/T80R/V86D/Y55F/Y59H); assay: Competitive MHC class II binding assay, DRB3_0202
DRB1_0701 = DRB1_0701 (Homo sapiens, UniProt P01903+P01911, A100R/A102G/A103Q/D57E/D86V/E43K/F76Y/K127E/L162R/M171V/P40G/Q125H/Q99D/R33Q/R42Y/R54Q/S133A/S66F/T210M/V115G/Y107V/Y59L/Y89S); assay: Competitive MHC class II binding assay, DRB1_0701;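 also: displacement of a radiolabeled reference peptide from purified HLA class II protein, with complex-bound radioactivity counted after 2–4 days of incubation and six concentrations spanning a 100,000-fold range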
DRB1_0802 = DRB1_0802 (Homo sapiens, UniProt P01903+P01911, A100R/A103L/A169T/F76Y/H45Y/I96F/K41T/L162R/M171V/P40S/Q125H/Q178H/Q39Y/Q99D/R218S/R42G/S66Y/V115G/W38E); assay: Competitive MHC class II binding assay, DRB1_0802
DRB1_0101 = DRB1_0101 (Homo sapiens, UniProt P01903+P01911, A100R/D57E/F55L/F60I/F76Y/I96L/L162R/M171V/P40L/Q125E/R42F/V115G/Y59C); assay: Competitive MHC class II binding assay, DRB1_0101;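 also: competition against a radiolabeled probe peptide (0.1–1 nM) for purified HLA class II protein over 2–4 days, bound counts read after antibody capture, six competitor levels across 100,000-fold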
DQA10101-DQB10501 = DQA10101-DQB10501 (Homo sapiens, UniProt P01909+P01920, A157S/A45G/A70V/C70R/D89V/E106S/E118A/E183D/E77G/F83G/G63E/H151Q/H199R/H252R/H253Q/I129T/I235V/I88M/INS77G/K197Q/L107V/L117V/L119Y/L178F/L71W/L74F/L85Q/L91A/L98M/M46L/N214S/P87R/Q116E/Q256R/Q57E/Q76K/R102G/R240Q/R75S/R78G/S102Y/S185I/S41F/S97I/T103A/T109R/T121G/T122I/T172A/T86R/V148I/V68A/V73E/Y34C/Y58G/Y62H); assay: Competitive MHC class II binding assay, DQA10101-DQB10501; settings: positive binding at cutoff 1000 nM; read-out: HLA-DQA10101-DQB10501
DPA10201-DPB10101 = assay: Competitive MHC class II binding assay, DPA10201-DPB10101; settings: read-out: HLA-DPA10201-DPB10101; positive binding at cutoff 1000 nM
DPA10103-DPB10401 = molecular target: T1, DPA10103-DPB10401 (Homo sapiens, UniProt P04440+P20036); assay: Competitive MHC class II binding assay, DPA10103-DPB10401
T1 sequence (P20036 29-260): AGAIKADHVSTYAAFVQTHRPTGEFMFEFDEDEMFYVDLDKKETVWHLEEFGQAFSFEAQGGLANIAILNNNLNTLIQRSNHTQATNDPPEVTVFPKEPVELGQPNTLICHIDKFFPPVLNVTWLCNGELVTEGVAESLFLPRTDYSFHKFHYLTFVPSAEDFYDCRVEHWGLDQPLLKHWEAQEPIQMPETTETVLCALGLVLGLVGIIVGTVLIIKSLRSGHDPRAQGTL
T1 sequence (P04440 30-258): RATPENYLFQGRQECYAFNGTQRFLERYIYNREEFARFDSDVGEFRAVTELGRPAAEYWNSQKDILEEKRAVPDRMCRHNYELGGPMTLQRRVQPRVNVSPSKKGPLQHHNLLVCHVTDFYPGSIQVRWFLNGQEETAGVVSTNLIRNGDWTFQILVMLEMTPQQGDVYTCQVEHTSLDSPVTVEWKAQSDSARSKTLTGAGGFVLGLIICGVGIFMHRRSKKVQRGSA

DRB1_0901 = DRB1_0901 (Homo sapiens, UniProt P01903+P01911, A100R/A103E/D57H/D86V/F55Y/F60I/F76Y/I96F/K127E/L162R/M171V/P40D/Q125H/Q99R/R33Q/R42F/S133A/S66N/T210M/V115G/W38K/Y107V/Y59G/Y89S); assay: Competitive MHC class II binding assay, DRB1_0901;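 also: displacement of a radiolabeled probe peptide from purified HLA class II protein, bound counts read after two to four days incubation, six concentrations spanning 100,000-fold, unlabeled probe as reference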
DRB5_0101 = DRB5_0101 (Homo sapiens, UniProt P01903+Q30154); assay: Competitive MHC class II binding assay, DRB5_0101
DRB1_0401 = DRB1_0401 (Homo sapiens, UniProt P01903+P01911, A100K/A169T/F76Y/I96L/K127E/L162R/M171V/N62H/P40V/Q125Y/R42H/S133A/S149N/S66Y/V115G/V209L/W38E); assay: Competitive MHC class II binding assay, DRB1_0401
DPA10202-DPB10501 = molecular target: T2, DPA10202-DPB10501 (Homo sapiens, UniProt P04440+P20036, A42M/A65V/A84E/F191V/F64L/G113D/G114E/K142R/L158P/M116V/M62Q/P115A/Q81R/R125K/T114A/T199I/T259P/V234M); assay: Competitive MHC class II binding assay, DPA10202-DPB10501; settings: positive binding at cutoff 1000 nM; read-out: HLA-DPA10202-DPB10501
T2 sequence (P04440 30-258 A65V/A84E/F64L/G113D/G114E/M116V/P115A/R125K/T199I/V234M): T1 sequence (P04440 30-258) with F35L, A36V, A55E, G84D, G85E, P86A, M87V, R96K, T170I, V205M
T2 sequence (P20036 29-260 A42M/F191V/K142R/L158P/M62Q/Q81R/T114A/T259P): T1 sequence (P20036 29-260) with A14M, M34Q, Q53R, T86A, K114R, L130P, F163V, T231P

DPA10201-DPB11401 = assay: Competitive MHC class II binding assay, DPA10201-DPB11401; settings: read-out: HLA-DPA10201-DPB11401; positive binding at cutoff 1000 nM
DPA10103-DPB10201 = molecular target: T3, DPA10103-DPB10201 (Homo sapiens, UniProt P04440+P20036, A65V/A84D/A85E/K98E); assay: Competitive MHC class II binding assay, DPA10103-DPB10201
T3 sequence (P20036 29-260): T1 sequence (P20036 29-260)
T3 sequence (P04440 30-258 A65V/A84D/A85E/K98E): T1 sequence (P04440 30-258) with A36V, A55D, A56E, K69E

DRB1_1201 = DRB1_1201 (Homo sapiens, UniProt P01903+P01911, A100R/A169T/D57E/D86V/F55L/H45Y/K41T/L162R/M171V/P40S/Q125H/Q178H/Q39Y/Q99D/R42G/S66L/T262R/V114A/V67L/W38E/Y59H/Y61H/Y89S); assay: Competitive MHC class II binding assay, DRB1_1201
DRB1_0301 = DRB1_0301 (Homo sapiens, UniProt P01903+P01911, A100K/A102G/A103R/A169T/F55Y/I96L/K41T/L162R/M171V/P40S/Q125H/Q178H/Q39Y/R42S/S66N/T106N/T262R/W38E/Y61H); assay: Competitive MHC class II binding assay, DRB1_0301

Measured: IC50

ESAYLAYRNQSLDLAE [pep-009]
not listed: DPA10202-DPB10501 | DPA10201-DPB11401 | DPA10103-DPB10201 | DRB1_1201 | DRB1_0301
< 1000 nM: all other assays above

QQYDIKYTWNVPKIA [pep-031]
not listed: DRB1_0405 | DRB1_0101 | DPA10201-DPB10101 | DPA10103-DPB10401
< 1000 nM: all other assays above
